Assay results as given in patent US20240199692A1 (priority 2019, published 2024).
Like-named read-outs stand apart in the source and are kept apart here. *1 amine or outer side, *2 acyl side, *3 side chain or, on linkers, in order; H or OH if unused. Where a SMILES comes first, the peptide text is derived from it. [ ]: non-standard residue; d: D form. The star is where a group is joined. PhSO2(4-NHCOPh(4-CONH2)) = NC(=O)c1ccc(C(=O)Nc2ccc(S(=O)(=O)*)cc2)cc1; Phenylsulfonyl(4-anisamido) = COc1ccc(C(=O)Nc2ccc(S(=O)(=O)*)cc2)cc1; X1 = O=C(Nc1ccc(S(=O)(=O)*)cc1)c1ccc(OC(F)(F)F)cc1; d(γGlu) = O=C(O)[C@@H](CCC(=O)[*:2])N[*:1]; d(βAsp) = O=C(O)[C@@H](CC(=O)[*:2])N[*:1]; Pro(4S-NH2) = N[C@@H]1CN[C@H](C(=O)O)C1; NMeI = CC[C@H](C)[C@H](NC)C(=O)O; NMeE = CN[C@@H](CCC(=O)O)C(=O)O; β3hP = O=C(O)C[C@@H]1CCCN1; Dab = NCC[C@H](N)C(=O)O; Dap = NC[C@H](N)C(=O)O

Key:
human MMP13 = human MMP13 (Homo sapiens, UniProt P45452); experiment: Inhibitory effects on human MMP13, enzyme assay; assay type: biochemical; conditions: Test Example 8
Protocol: The human MMP13 activated through the reaction was poured into a 96-well microplate to reach a final concentration of 5 ng/mL. […] Then, MOCAc-[…] was added to reach a final concentration of 6 μmol/L, and enzymatic reaction was initiated.

MMP2 [1] = target: T1, MMP2 (Homo sapiens, UniProt P08253); experiment: Inhibitory effects on human MMP2 (Method 1), enzyme assay with MOCAc-Pro-Leu-Gly-Leu-A2pr(Dnp)-Ala-Arg-NH2 substrate, 96-well; assay type: biochemical; conditions: Test Example No. 1-1 (Method 1, 96-well microplate); read-out: Human MMP2, IC50
T1 sequence (P08253 110-660): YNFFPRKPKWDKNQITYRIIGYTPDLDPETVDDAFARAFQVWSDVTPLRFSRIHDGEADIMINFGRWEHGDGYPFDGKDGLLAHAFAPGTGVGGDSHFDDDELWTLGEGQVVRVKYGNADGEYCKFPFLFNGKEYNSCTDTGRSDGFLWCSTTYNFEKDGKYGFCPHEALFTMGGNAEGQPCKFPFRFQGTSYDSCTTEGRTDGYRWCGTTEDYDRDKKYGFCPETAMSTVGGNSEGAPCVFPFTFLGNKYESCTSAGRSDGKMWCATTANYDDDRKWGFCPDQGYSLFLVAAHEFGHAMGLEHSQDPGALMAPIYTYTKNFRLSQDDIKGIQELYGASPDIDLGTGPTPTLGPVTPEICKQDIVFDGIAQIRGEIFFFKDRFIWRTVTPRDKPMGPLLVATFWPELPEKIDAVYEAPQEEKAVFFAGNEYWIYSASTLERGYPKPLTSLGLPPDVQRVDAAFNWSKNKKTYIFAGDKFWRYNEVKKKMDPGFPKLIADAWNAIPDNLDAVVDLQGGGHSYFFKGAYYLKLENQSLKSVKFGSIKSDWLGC
Protocol: In a reaction solution [50 mmol/L Tris-HCl (pH 7.5), 150 mmol/L NaCl, 10 mmol/L CaCl2, 0.05% Brij L23], 100 μg/mL human recombinant MMP2 enzyme and 1 mmol/L 4-Aminophenylmercuric acetate were mixed together, and reacted at 37° C. for 60 minutes. The human MMP2 activated through the reaction was poured into a 96-well microplate to reach a final concentration of 0.7 or 7 ng/mL.

human MMP12 = human MMP12 (Homo sapiens, UniProt P39900); experiment: Inhibitory effects on human MMP12, enzyme assay; assay type: biochemical
Chain of human MMP12 (P39900 106-470): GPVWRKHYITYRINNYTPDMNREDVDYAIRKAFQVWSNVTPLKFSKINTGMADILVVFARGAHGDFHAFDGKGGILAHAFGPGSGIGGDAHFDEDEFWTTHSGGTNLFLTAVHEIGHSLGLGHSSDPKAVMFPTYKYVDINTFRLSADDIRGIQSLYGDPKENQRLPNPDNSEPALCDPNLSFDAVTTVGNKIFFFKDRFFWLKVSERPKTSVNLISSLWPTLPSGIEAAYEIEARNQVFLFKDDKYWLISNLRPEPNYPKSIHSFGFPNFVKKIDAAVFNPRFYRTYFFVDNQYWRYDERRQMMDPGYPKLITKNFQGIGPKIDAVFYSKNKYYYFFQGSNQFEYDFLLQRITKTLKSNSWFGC

MMP2 [2] = target: T1, MMP2; experiment: Inhibitory effects on human MMP2 (Method 2), enzyme assay with MOCAc-Pro-Leu-Gly-Leu-A2pr(Dnp)-Ala-Arg-NH2 substrate, 384-well; assay type: biochemical; conditions: Test Example No. 1-2 (Method 2, 384-well microplate)
MMP2 [3] = target: T1, MMP2; conditions: reported, see NPTL 19; cited from earlier work
[4] = Test Example 7, read-out: Human MMP12, IC50

| Molecule | IC50 (human MMP12; [4]) [nM] | IC50 (MMP2 [2]) [nM] | IC50 (human MMP13) [nM] | IC50 (MMP2 [1]) [nM] | IC50 (human MMP12) [nM] | MMP2-inhibitory effect (MMP2 [3]) |
| --- | --- | --- | --- | --- | --- | --- |
| CC(C)C[C@H](NC(=O)[C@@H]1C[C@H](N)CN1C(=O)CC[C@@H](NS(=O)(=O)c1ccc(NC(=O)c2ccc(C(N)=O)cc2)cc1)C(=O)O)C(=O)N(C)[C@@H](CCC(=O)O)C(=O)NCCCCC(N)=O [Compound 1, N-[4-(4-carbamoylbenzamido)benzene-1-sulfonyl]-D-γ-glutamyl-(4S)-4-amino-L-prolyl-L-1 eucyl-N-(5-amino-5-oxopentyl)-N^2-methyl-L-α-glutamine] |  |  | 240 | 0.22 | 253 |  |
| CC[C@H](C)[C@@H](C(=O)NCCCCC(N)=O)N(C)C(=O)[C@H](CC(C)C)NC(=O)[C@@H]1C[C@H](N)CN1C(=O)CC[C@@H](NS(=O)(=O)c1ccc(NC(=O)c2ccc(C(N)=O)cc2)cc1)C(=O)O [Compound 9] | 160 |  | 250 | 0.29 |  |  |
| IIe-Ser-Tyr-Gly-Asn-Asp-Ala-Leu-Met-Pro [APP-IP] |  |  |  |  |  | selective MMP2-inhibitory effect |

Second part, led by results:

| IC50 (human MMP12; [4]) [nM] | IC50 (MMP2 [2]) [nM] | Molecule | IC50 (human MMP13) [nM] | IC50 (MMP2 [1]) [nM] | IC50 (human MMP12) [nM] | MMP2-inhibitory effect (MMP2 [3]) |
| --- | --- | --- | --- | --- | --- | --- |
|  | 0.14 | CC(C)C[C@H](NC(=O)[C@@H]1C[C@H](N)CN1C(=O)CC[C@@H](NS(=O)(=O)c1ccc(NC(=O)c2ccc(C(N)=O)cc2)cc1)C(=O)O)C(=O)N(C)[C@@H](CCC(=O)O)C(=O)N[C@H](CCCNC(=N)N)C(N)=O [Compound 29] ({PhSO2(4-NHCOPh(4-CONH2))-d(γGlu)}-[Pro(4S-NH2)]L[NMeE][dR]-NH2; C-terminus assumed) |  |  |  |  |
| 101 |  | COc1ccc(C(=O)Nc2ccc(S(=O)(=O)N[C@H](CC(=O)N[C@@H](CN)C(=O)N[C@@H](CC(C)C)C(=O)N(C)[C@@H](CCC(=O)O)C(=O)N3CCC[C@H]3CC(N)=O)C(=O)O)cc2)cc1 [Compound 691] ({Phenylsulfonyl(4-anisamido)-d(βAsp)}-[Dap]L[NMeE][β3hP]-NH2; N-terminus assumed) | 142 | 0.065 |  |  |
| 169 |  | CC[C@H](C)[C@@H](C(=O)N1CCC[C@H]1CC(N)=O)N(C)C(=O)[C@H](CC(C)C)NC(=O)[C@H](CCN)NC(=O)CC[C@@H](NS(=O)(=O)c1ccc(NC(=O)c2ccc(OC(F)(F)F)cc2)cc1)C(=O)O [Compound 701] ({X1-d(γGlu)}-[Dab]L[NMeI][β3hP]-NH2; N-terminus assumed) | 116 | 0.27 |  |  |
